Assay results from patent publication US20240368133A1, “Compounds for the Treatment of Pain, in Particular, Neuropathic Pain, and/or Other Diseases or Disorders that are Associated with AT2R and/or AT2R Mediated Signaling” (Confo Therapeutics N.V., priority 2021, published 2024).
Read-outs that look alike come from different tables or passages of the source.

How the values were obtained:
[1] = target: CYP3A4 (Homo sapiens (Human), UniProt P08684); assay: CYP inhibition, CYP3A4; format: in vitro ADME; settings: test compound at 10 μM
Chain of CYP3A4 (P08684 whole entry): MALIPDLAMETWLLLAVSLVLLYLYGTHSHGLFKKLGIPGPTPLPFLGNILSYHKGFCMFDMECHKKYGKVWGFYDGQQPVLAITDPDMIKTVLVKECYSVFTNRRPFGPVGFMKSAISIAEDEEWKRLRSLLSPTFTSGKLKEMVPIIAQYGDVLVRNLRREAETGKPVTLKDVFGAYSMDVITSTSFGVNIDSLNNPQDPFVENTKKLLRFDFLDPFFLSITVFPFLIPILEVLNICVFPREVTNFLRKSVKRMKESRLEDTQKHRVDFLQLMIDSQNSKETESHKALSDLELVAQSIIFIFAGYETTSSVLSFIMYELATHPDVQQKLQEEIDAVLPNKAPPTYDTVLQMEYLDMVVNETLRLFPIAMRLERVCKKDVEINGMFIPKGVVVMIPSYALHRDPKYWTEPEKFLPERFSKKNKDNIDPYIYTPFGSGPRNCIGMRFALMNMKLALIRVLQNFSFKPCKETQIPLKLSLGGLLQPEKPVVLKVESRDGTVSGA
Experimental: (§1) The aim of this assay is to determine the inhibitory potential of a test compound. A major concern for drug-drug-interaction is cytochrome P450 inhibition. Reversible CYP inhibition was determined in human liver microsomes using specific probe substrates for human cytochrome P450 isoenzymes CYP1A2, 2C9, 2C19, 2D6 and 3A4.
(§2) The potential for CYP450 inhibition was assessed by performing in vitro inhibition studies using fluorogenic CYP450 substrates with the corresponding CYP450 enzymes and NADPH regeneration system (Vivid CYP450 Screening Kits) with some minor changes to the manufacturer's protocols. The fluorescent signal produced from reaction is directly proportional to the cytochrome P450 activity. In the cases when tested compounds interfere with the CYP450 enzyme-substrate reaction, the fluorescent signal decreases. In brief, the tested compounds were first dissolved in DMSO at 100× concentration (1 mM), and diluted in buffer to 2.5× concentration (25 μM). Then the 2.5× compound solutions were mixed with the Master Pre-mix consisting of Human CYP450+Oxidoreductase and NADP+Regeneration System (glucose-6-phosphate and glucose-6-phosphate dehydrogenase). After 10 minutes pre-incubation, the enzymatic reaction was initiated by the addition of a mix of NADPH and the appropriate CYP450 substrates. The plate was incubated for the desired reaction time (25 min for CYP1A2, CYP2C9, CYP2D6, and CYP3A4, 60 min for CYP2C19) after which Stop Reagent was added and fluorescence measured using SpectraMax Paradigm Multi-Mode Microplate Reader. All test points were performed in quadruplicates at concentration 10 μM (1% DMSO).
(§3) A 10 mM stock solution of test compound is prepared in methanol. This stock is further serially diluted 1:3 in methanol and then added to mixture containing 50 mM potassium phosphate buffer pH7.4, human liver microsomes (BD Gentest) and probe substrate. After pre-warming 5 min at 37° C., the reaction is started by adding co-factor mix ([…] glucose-6-phosphate, 1.7 mg/mL NADP, 6 U/mL of glucose-6-phosphate dehydrogenase), resulting in a final concentration of test compound at 10 μM (2% MeOH).
(§4) Final concentrations of co-factor mix components are as follows: 1.56 mg/mL glucose-6-phosphate, 0.34 mg/mL NADP, 1.2 U/mL of glucose-6-phosphate dehydrogenase.
(§5) After incubation at 37° C., the reaction (aliquot of 50 μL) is terminated with 150 μL CH3CN:MeOH (2:1) solution with internal standard (warfarin for 2C9, diclofenac for all other tested isoforms). Samples are centrifuged and the supernatant fractions analyzed by LC-MS/MS.
(§6) The instrument responses (ratio of test compound and internal standard peak areas) are referenced to those for solvent controls (assumed as 100%) in order to determine the percentage reduction in probe metabolism. Percent of control activity vs. concentration plots are generated and fitted using GraphPad Prism software to generate IC50.

[2] = Liver microsomal stability, human; format: in vitro ADME; settings: pH 7.4, liver microsomes
Experimental: (§7) Microsomal incubations were carried out in 96-well plates in 5 aliquots of 40 μL each (one for each time point). Liver microsomal incubation medium contained PBS (100 mM, pH 7.4), MgCl2 (3.3 mM), NADPH (3 mM), glucose-6-phosphate (5.3 mM), glucose-6-phosphate dehydrogenase (0.67 units/ml) with 0.42 mg of liver microsomal protein per ml. Control incubations were performed replacing the NADPH-cofactor system with PBS. Test compound (2 μM, final solvent concentration 1.6%) was incubated with microsomes at 37° C., shaking at 100 rpm. Incubations were performed in duplicates. Five time points over 40 minutes have been analyzed. The reactions were stopped by adding 12 volumes of 90% acetonitrile-water to incubation aliquots, followed by protein sedimentation by centrifuging at 5500 rpm for 3 minutes. […]. Supernatants were analyzed using the HPLC system coupled with tandem mass spectrometer (API3000 PE Sciex). Acquisition and analysis of the data were performed using Analyst 1.5.2 software (PE Sciex). The elimination constant (kel), half-life (t½) and intrinsic clearance (Clint) were determined in plot of […] versus time, using linear regression analysis:
(§8) A 10 mM stock solution of compound in DMSO is diluted three-fold in DMSO. This pre-diluted compound solution is then further diluted to 2 μM in a 50 mM phosphate buffer (PBS, pH 7.4) and pre-warmed at 37° C. This compound dilution is mixed F2 with microsomal/cofactor mix at 37° C. under shaking at 300 rpm. Final reaction conditions are: 100 μL incubation volume, 1 μM of test compound (in duplicate), <0.1% DMSO, 0.5 mg/mL microsomes, 0.6 U/mL Glucose-6-phosphate-dehydrogenase (G6PDH, Roche, 10127671001), 3.3 mM MgCl2 (Sigma, M2670), 3.3 mM glucose-6-phosphate (Sigma, G-7879) and 1.3 mM NADP+ (Sigma, N-0505).
(§9) After 60 min of incubation at 300 rpm and 37° C., the reaction was stopped with 3 volumes of STOP solution (acetonitrile/MeOH 2/1 with diclofenac as internal standard). For the time point zero, 3 volumes of STOP solution were added to the compound dilution before the microsome mix was added. Six time points over 60 minutes have been analyzed. The samples of all time points were centrifuged, filtered and the supernatant analyzed by LCMS/MS (systems API4000).
(§10) The instrument responses (peak areas/IS peak area) were referenced to the zero time-point samples (considered as 100%) in order to determine the percentage of compound remaining.
(§11) Testosterone (1 μM) and Propranolol and Caffeine (1 μM) were used as reference compounds, being unstable and stable compounds respectively. If the microsomal stability values for these controls are not in the range determined by the historical data, the assay is not validated. The solubility of the compound in the final test concentration in 50 mM buffer pH 7.4 is checked by microscope to indicate whether precipitation is observed or not. If a precipitate is observed, no data of microsomal stability is generated.

[3] = Liver microsomal stability, rat; format: in vitro ADME; settings: male, pH 7.4, liver microsomes
Experimental: Mouse hepatic microsomes were isolated from pooled (50), perfused livers of male Balb/c mice. Rat hepatic microsomes were isolated from pooled (15), perfused livers of male Wistar rats. Isolation was performed according to the standard protocol (Hill, J. R. in Current Protocols in Pharmacology 7.8.1-7.8.11, Wiley Interscience, 2003). The batches of microsomes were tested for quality control using Imipramine, Propranolol and Verapamil as reference compounds.
as §7
Mouse hepatic microsomes were isolated from pooled, perfused livers of male CD1 mice. Rat hepatic microsomes were isolated from pooled, perfused livers of male Sprague Dawley rats. Dog hepatic microsomes were isolated from pooled, perfused livers of male Beagle dogs. The batches of microsomes were tested for quality control using Testosterone, Propranolol and Caffeine as reference compounds.
as §8, §9, §10, §11

[4] = target: CYP1A2 (Homo sapiens (Human), UniProt P05177); assay: in vitro
Chain of CYP1A2 (P05177 whole entry): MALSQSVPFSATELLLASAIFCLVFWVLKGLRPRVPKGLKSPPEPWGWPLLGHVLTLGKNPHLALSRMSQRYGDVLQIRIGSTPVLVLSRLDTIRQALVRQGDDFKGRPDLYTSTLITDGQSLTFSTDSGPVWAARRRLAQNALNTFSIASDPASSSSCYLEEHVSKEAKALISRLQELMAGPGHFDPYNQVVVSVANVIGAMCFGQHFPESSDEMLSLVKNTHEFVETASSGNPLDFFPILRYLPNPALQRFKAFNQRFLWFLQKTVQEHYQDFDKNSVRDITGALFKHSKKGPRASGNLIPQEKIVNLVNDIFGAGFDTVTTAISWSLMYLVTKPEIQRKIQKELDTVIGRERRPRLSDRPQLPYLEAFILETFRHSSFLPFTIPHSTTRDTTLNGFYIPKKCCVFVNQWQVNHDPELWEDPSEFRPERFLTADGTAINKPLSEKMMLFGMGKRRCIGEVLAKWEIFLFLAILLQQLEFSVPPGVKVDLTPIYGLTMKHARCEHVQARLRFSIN
Experimental: as §1, §2, §3, §4, §5, §6

[5] = human, probe not marked, read-out: % Inhibition (PIN) 3A4
[6] = pH 7.4, probe substrate Midazolam (M), human liver microsomes, read-out: % Inhibition (PIN) 3A4
[7] = pH 7.4, probe substrate Testosterone (T), human liver microsomes, read-out: % Inhibition (PIN) 3A4 (T)

Structure (SMILES) | inhibition at 10 µM [1, 5] [%] | microsomal CLint [2] [µL/min/mg] | microsomal CLint [3] [µL/min/mg] | inhibition at 10 µM [4] [%] | inhibition at 10 µM [1, 6] [%] | inhibition at 10 µM [1, 7] [%]
CC(C)Cc1cc(F)c(-c2nn[nH]n2)c(N2CCN(Cc3cccnn3)[C@@H](C)C2)c1 [Compound A-174, 3-[[(2S)-4-[3-fluoro-5-isobutyl-2-(2H-tetrazol-5-yl)phenyl]-2-methyl-piperazin-1-yl]methyl]pyridazine] | 36 | < 6.6 | < 17.3 | 22.7 | – | –
CCC1CN(c2cc(CC(C)C)cc(F)c2-c2nn[nH]n2)CCN1Cc1cccnn1 (stereo not drawn) [Compound A-178, 3-[[2-ethyl-4-[3-fluoro-5-isobutyl-2-(2H-tetrazol-5-yl)phenyl]piperazin-1-yl]methyl]pyridazine] | 8 | 20 | 5 | 23.5 | – | –
CC(C)Cc1cc(F)c(-c2nn[nH]n2)c(N2CCN(Cc3ccccn3)[C@@H](C)C2)c1 [Compound A-217, (2S)-4-[3-fluoro-5-isobutyl-2-(2H-tetrazol-5-yl)phenyl]-2-methyl-1-(2-pyridylmethyl)piperazine] | – | < 6.6 | < 17.3 | 16 | 73 | 25
Cc1cnc(CN2CCN(c3cc(CC(C)C)cc(F)c3-c3nn[nH]n3)C[C@@H]2C)s1 [Compound A-223, 2-[[(2S)-4-[3-fluoro-5-isobutyl-2-(2H-tetrazol-5-yl)phenyl]-2-methyl-piperazin-1-yl]methyl]-5-methyl-thiazole] | – | 18.2 | 24.1 | 16 | 82 | 28
